What was measured:
[1] = test system: UACC-62; test: Cytotoxicity against human UACC62 cells assessed as cell growth at 0.01 uM after 48 hrs by sulforhodamine B assay relative to control; type: functional; conditions: UACC-62, 48 h, read-out: Activity
[2] = test system: RPMI-8226; test: Cytotoxicity against human RPMI8226 cells assessed as cell growth at 0.1 uM after 48 hrs by sulforhodamine B assay relative to control; type: functional; conditions: RPMI-8226, 48 h, read-out: Activity
[3] = test system: MDA-MB-435; test: Cytotoxicity against human MDA-MB-435 cells assessed as cell growth at 0.01 uM after 48 hrs by sulforhodamine B assay relative to control; type: functional; conditions: MDA-MB-435, 48 h, read-out: Activity
[4] = test system: OVCAR-5; test: Cytotoxicity against human OVCAR5 cells assessed as cell growth at 1 uM after 48 hrs by sulforhodamine B assay relative to control; type: functional; conditions: OVCAR-5, 48 h, read-out: Activity
[5] = test system: HCT-116; test: Cytotoxicity against human HCT116 cells assessed as cell growth at 0.01 uM after 48 hrs by sulforhodamine B assay relative to control; type: functional; conditions: HCT-116, 48 h, read-out: Activity
[6] = test system: SF-268; test: Cytotoxicity against human SF268 cells assessed as cell growth at 1 uM after 48 hrs by sulforhodamine B assay relative to control; type: functional; conditions: SF-268, 48 h, read-out: Activity
[7] = test system: NCI-H322M; test: Cytotoxicity against human NCI-H322M cells assessed as cell growth at 100 uM after 48 hrs by sulforhodamine B assay relative to control; type: functional; conditions: read-out: Activity
[8] = test system: SK-MEL-28; test: Cytotoxicity against human SK-MEL-28 cells assessed as cell growth at 100 uM after 48 hrs by sulforhodamine B assay relative to control; type: functional; conditions: SK-MEL-28, 48 h, read-out: Activity
[9] = test system: 786-0; test: Cytotoxicity against human 786-0 cells assessed as cell growth at 10 uM after 48 hrs by sulforhodamine B assay relative to control; type: functional; conditions: 786-0, 48 h, read-out: Activity
[10] = test system: DU-145; test: Cytotoxicity against human DU145 cells assessed as cell growth at 10 uM after 48 hrs by sulforhodamine B assay relative to control; type: functional; conditions: DU-145, 48 h, read-out: Activity
[11] = test system: HCT-15; test: Cytotoxicity against human HCT15 cells assessed as cell growth at 0.1 uM after 48 hrs by sulforhodamine B assay relative to control; type: functional; conditions: HCT-15, 48 h, read-out: Activity
[12] = test system: RPMI-8226; test: Cytotoxicity against human RPMI8226 cells assessed as cell growth at 1 uM after 48 hrs by sulforhodamine B assay relative to control; type: functional; conditions: RPMI-8226, 48 h, read-out: Activity
[13] = test system: SK-OV-3; test: Cytotoxicity against human SKOV3 cells assessed as cell growth at 10 uM after 48 hrs by sulforhodamine B assay relative to control; type: functional; conditions: SK-OV-3, 48 h, read-out: Activity
[14] = test system: UACC-62; test: Cytotoxicity against human UACC62 cells assessed as cell growth at 100 uM after 48 hrs by sulforhodamine B assay relative to control; type: functional; conditions: UACC-62, 48 h, read-out: Activity
[15] = test system: OVCAR-8; test: Cytotoxicity against human OVCAR8 cells assessed as cell growth at 100 uM after 48 hrs by sulforhodamine B assay relative to control; type: functional; conditions: OVCAR-8, 48 h, read-out: Activity
[16] = test system: DU-145; test: Cytotoxicity against human DU145 cells assessed as cell growth at 100 uM after 48 hrs by sulforhodamine B assay relative to control; type: functional; conditions: DU-145, 48 h, read-out: Activity
[17] = test system: SW-620; test: Cytotoxicity against human SW620 cells assessed as growth inhibition after 48 hrs by sulforhodamine B assay; type: functional; conditions: SW-620, 48 h
[18] = test system: SW-620; test: Cytotoxicity against human SW620 cells assessed as cell growth at 100 uM after 48 hrs by sulforhodamine B assay relative to control; type: functional; conditions: SW-620, 48 h, read-out: Activity
[19] = test system: U-251; test: Cytotoxicity against human U251 cells assessed as cell growth at 100 uM after 48 hrs by sulforhodamine B assay relative to control; type: functional; conditions: U-251, 48 h, read-out: Activity
[20] = test system: PC-3; test: Cytotoxicity against human PC3 cells assessed as cell growth at 0.1 uM after 48 hrs by sulforhodamine B assay relative to control; type: functional; conditions: PC-3, 48 h, read-out: Activity
[21] = test system: RPMI-8226; test: Cytotoxicity against human RPMI8226 cells assessed as growth inhibition after 48 hrs by sulforhodamine B assay; type: functional; conditions: RPMI-8226, 48 h
[22] = test system: K562; test: Cytotoxicity against human K562 cells assessed as cell growth at 0.1 uM after 48 hrs by sulforhodamine B assay relative to control; type: functional; conditions: K562, 48 h, read-out: Activity
[23] = test system: HL-60(TB); test: Cytotoxicity against human HL-60(TB) cells assessed as cell growth at 0.1 uM after 48 hrs by sulforhodamine B assay relative to control; type: functional; conditions: HL-60, 48 h, read-out: Activity
[24] = test system: KM12; test: Cytotoxicity against human KM12 cells assessed as cell growth at 10 uM after 48 hrs by sulforhodamine B assay relative to control; type: functional; conditions: KM12, 48 h, read-out: Activity
[25] = test system: SN12C; test: Cytotoxicity against human SN12C cells assessed as cell growth at 1 uM after 48 hrs by sulforhodamine B assay relative to control; type: functional; conditions: read-out: Activity
[26] = test system: MCF7; test: Cytotoxicity against human MCF7 cells assessed as growth inhibition after 48 hrs by MTT assay; type: functional, cell-based; conditions: MCF7, 48 h
[27] = test system: NCI-H322M; test: Cytotoxicity against human NCI-H322M cells assessed as cell growth at 0.1 uM after 48 hrs by sulforhodamine B assay relative to control; type: functional; conditions: read-out: Activity
[28] = test system: OVCAR-4; test: Cytotoxicity against human OVCAR4 cells assessed as cell growth at 0.01 uM after 48 hrs by sulforhodamine B assay relative to control; type: functional; conditions: OVCAR-4, 48 h, read-out: Activity
[29] = test system: ACHN; test: Cytotoxicity against human ACHN cells assessed as growth inhibition after 48 hrs by sulforhodamine B assay; type: functional
[30] = test system: BT-549; test: Cytotoxicity against human BT549 cells assessed as cell growth at 10 uM after 48 hrs by sulforhodamine B assay relative to control; type: functional; conditions: BT-549, 48 h, read-out: Activity
[31] = test system: KM12; test: Cytotoxicity against human KM12 cells assessed as cell growth at 0.1 uM after 48 hrs by sulforhodamine B assay relative to control; type: functional; conditions: KM12, 48 h, read-out: Activity
[32] = test system: K562; test: Cytotoxicity against human K562 cells assessed as growth inhibition after 48 hrs by sulforhodamine B assay; type: functional; conditions: K562, 48 h
[33] = test system: SF-539; test: Cytotoxicity against human SF539 cells assessed as cell growth at 1 uM after 48 hrs by sulforhodamine B assay relative to control; type: functional; conditions: SF-539, 48 h, read-out: Activity
[34] = test system: NCI-H23; test: Cytotoxicity against human NCI-H23 cells assessed as cell growth at 0.01 uM after 48 hrs by sulforhodamine B assay relative to control; type: functional; conditions: NCI-H23, 48 h, read-out: Activity
[35] = test system: MDA-MB-435; test: Cytotoxicity against human MDA-MB-435 cells assessed as cell growth at 1 uM after 48 hrs by sulforhodamine B assay relative to control; type: functional; conditions: MDA-MB-435, 48 h, read-out: Activity
[36] = test system: SW-620; test: Cytotoxicity against human SW620 cells assessed as cell growth at 1 uM after 48 hrs by sulforhodamine B assay relative to control; type: functional; conditions: SW-620, 48 h, read-out: Activity

For `COc1cc(C(=O)/C=C/c2cc(-c3ccc4c(c3)OCO4)n[nH]2)cc(OC)c1OC`, the growth at 0.01 µM [1] was 96%, the growth at 0.1 µM [2] was 93% and the growth at 0.01 µM [3] was 96%. The growth at 1 µM [4] was 87%, the growth at 0.01 µM [5] was 101% and the growth at 1 µM [6] was 89%. It also gave a growth at 100 µM [7] of -95%, a growth at 100 µM [8] of -96% and a growth at 10 µM [9] of -84%. It also gave a growth at 10 µM [10] of -4%, a growth at 0.1 µM [11] of 101% and a growth at 1 µM [12] of 32%. For the same compound, the growth at 10 µM [13] was 19%, the growth at 100 µM [14] was -96% and the growth at 100 µM [15] was -92%. It also gave a growth at 100 µM [16] of -97%, a GI50 [17] of 1620 nM and an LC50 (lethal concentration, 50% net cell kill) [17] of 8.9 µM. The TGI [17] was 3.8 µM, the growth at 100 µM [18] was -65% and the growth at 100 µM [19] was -98%. The growth at 0.1 µM [20] was 95%, the GI50 [21] was 560 nM and the LC50 [21] was greater than 100 µM. For the same compound, the TGI [21] was 2530 nM, the growth at 0.1 µM [22] was 84% and the growth at 0.1 µM [23] was 98%. For the same compound, the growth at 10 µM [24] was -66%, the growth at 1 µM [25] was 90% and the IC50 [26] was 850 nM. It also gave a growth at 0.1 µM [27] of 94%, a growth at 0.01 µM [28] of 97% and a GI50 [29] of 2200 nM. It also gave an LC50 [29] of 18.8 µM, a TGI [29] of 4.95 µM and a growth at 10 µM [30] of -38%. For the same compound, the growth at 0.1 µM [31] was 93%, the GI50 [32] was 2170 nM and the LC50 (concentration killing 50% of cells) [32] was greater than 100 µM. For the same compound, the TGI [32] was greater than 100 µM, the growth at 1 µM [33] was 68% and the growth at 0.01 µM [34] was 95%. For the same compound, the growth at 1 µM [35] was 94% and the growth at 1 µM [36] was 78%.

Compound `COc1cc2c(cc1OC)C(=O)/C(=C/c1cc(-c3ccc4c(c3)OCO4)n[nH]1)C2` has a growth at 0.01 µM [1] of 100%, a growth at 0.1 µM [2] of 93% and a growth at 0.01 µM [3] of 102%. The growth at 1 µM [4] was 84%, the growth at 0.01 µM [5] was 105% and the growth at 1 µM [6] was 83%. The growth at 100 µM [7] was -91%, the growth at 100 µM [8] was -92% and the growth at 10 µM [9] was -98%. For the same compound, the growth at 10 µM [10] was -92%, the growth at 0.1 µM [11] was 93% and the growth at 1 µM [12] was -24%. It also gave a growth at 10 µM [13] of -18%, a growth at 100 µM [14] of -88% and a growth at 100 µM [15] of -94%. The growth at 100 µM [16] was -88%, the GI50 [17] was 1350 nM and the LC50 (lethal concentration, 50% net cell kill) [17] was 8.96 µM. It also gave a TGI [17] of 3.47 µM, a growth at 100 µM [18] of -71% and a growth at 100 µM [19] of -94%. For the same compound, the growth at 0.1 µM [20] was 89%, the GI50 [21] was 230 nM and the LC50 [21] was 5.52 µM. It also gave a TGI [21] of 623 nM, a growth at 0.1 µM [22] of 94% and a growth at 0.1 µM [23] of 95%. The growth at 10 µM [24] was -87%, the growth at 1 µM [25] was 87% and the IC50 [26] was 1020 nM. The growth at 0.1 µM [27] was 92%, the growth at 0.01 µM [28] was 101% and the GI50 [29] was 1730 nM. The LC50 [29] was 6.04 µM, the TGI [29] was 3.23 µM and the growth at 10 µM [30] was -94%. It also gave a growth at 0.1 µM [31] of 99%, a GI50 [32] of 1590 nM and an LC50 (concentration killing 50% of cells) [32] greater than 100 µM. For the same compound, the TGI [32] was greater than 100 µM, the growth at 1 µM [33] was 67% and the growth at 0.01 µM [34] was 93%. It also gave a growth at 1 µM [35] of 93% and a growth at 1 µM [36] of 66%.
